Laboratory results from patent US20220041559A1, “BENZO-AND PYRIDO-PYRAZOLES AS PROTEIN KINASE INHIBITORS” (ROTTAPHARM BIOTECH S.R.L., priority 2019, published 2022).
Where two headings read alike, the source gives them in different places.

What was measured:
EGFR = EGFR (Homo sapiens, UniProt P00533); experiment: ADP-Glo in vitro kinase assay, EGFR kinase inhibition; format: biochemical; set-up: purchased SignalChem; conditions: for IC50: ATP 10 μM, 30 minutes at room temperature; for EGFR kinase inhibition, result in words: text summary of Table 18
Experimental: (§1) The ADP-Glo™ Kinase Assay (Promega), monitoring ADP produced in the kinase reaction, was performed in two steps. In the first one, after the kinase reaction, the ADP-Glo™ Reagent is added to terminate the kinase reaction and deplete the remaining ATP. In the second step, the Kinase Detection Reagent is added to simultaneously convert ADP to ATP (ATPn or newly synthesized ATP) and introduce luciferase and luciferin, allowing the ATPn to be measured (luciferase/luciferin reaction). The amount of light generated correlates with the amount of ATPn (indirectly with the ADP produced in kinase reaction).
(§2) Kinase reaction was performed in 10 μl in a white 384-well plate, inhibitor solutions in DMSO/Kinase buffer (40 mM Tris-Cl, 20 mM MgCl2, 0.1 mg/ml BSA, 50 μM DTT, pH 7.5) and EGFR kinase in Kinase buffer (SignalChem, 2.5 ng/μl final concentration in assay) were pre-incubate 15 minutes at room temperature. At the kinase concentration selected a signal-to negative control ratio >10 was calculated, according to supplier indication. In samples representing the Total enzymatic activity (no inhibitor) or the negative control (no enzyme), inhibitor solution was replaced by diluents (1 DMSO in kinase buffer, final concentration) or ultra-pure water, respectively.
(§3) The range of inhibitor concentrations was from 10^−11 M up to 3×10^−6 M (final concentration in assay) and each experimental point was performed in duplicate.
(§4) To start the reaction, a substrate/ATP mix (ATP 10 μM final concentration, near to ATP Km value) was added to each sample and after 30 minutes incubation at room temperature, ADP-Glo™ Reagent and Kinase Detection Reagent, incubated in sequence according to the respective incubation time and supplier indication, allowed to stop and develop the kinase reaction. The luminescence was measured with a plate-reading luminometer (Envision 2104 Multilabel reader, PerkinElmer). The percentage of inhibition was calculated towards the Total enzymatic activity and the corresponding curves were analyzed by non linear curve fitting (GraphPad software, version 7 for Windows), allowing to calculate the IC50 value±standard error of the estimate.

VEGFR2 (KDR) kinase = target: T1, VEGFR2 (KDR) kinase (Homo sapiens, UniProt P35968); experiment: ADP-Glo in vitro kinase assay, VEGFR2 kinase inhibition; format: biochemical; conditions: for IC50: ATP 50 μM, 30 minutes at room temperature; for VEGFR2 kinase inhibition, result in words: Table 19
T1 construct: purchased SignalChem
Experimental: as §1
as §2, with “VEGFR2 (KDR)” for “EGFR”, “0.5” for “2.5”, “selected,” for “selected”, “activity” for “activity (no inhibitor)”
as §3
as §4, with “(50” for “(ATP 10”, “value” for “estimate.”

FYN = target: T2, FYN (Homo sapiens, UniProt P06241); experiment: Z'-LYTE in vitro kinase assay, FYN kinase inhibition; format: biochemical; conditions: near-Km ATP, 60 minutes at 25° C.
T2 construct: purchased CarnaBioscience
Experimental: Assays to determine the kinase inhibitory activity of compounds were performed using an automatic liquid handling device (Microlab STAR Hamilton) and Z′-LYTE™ Kinase Assay Platform (Invitrogen), a Fluorescence Resonance Energy Transfer (FRET)-based assay platform compatible with high-throughput screening (HTS) applications. The assay employs a fluorescence-based, coupled-enzyme format and utilizes the differential sensitivity of phosphorylated and non-phosphorylated peptides to proteolytic cleavage.
Test compounds were evaluated towards active FYN (CarnaBioscience). The enzyme was incubated in a 384 low-volume microplate with a synthetic peptide-substrate, ATP and different inhibitor concentrations, ranging from 10^−10 M up to 10^−5 M final concentration. Samples representing the 0% inhibition (or total enzymatic activity) were in the presence of compound diluent (1% DMSO final) in Reaction Buffer (50 mM Hepes, 10 mM MgCl2, 1 mM EGTA, 0.01% Brij-35, pH 7.5).
A near-Km ATP concentrations for the kinase and an optimal enzyme concentration that phosphorylates 20-40% of the Z′-LYTE™ Tyr 2 Peptide in a one-hour incubation, were selected. All reagents were diluted in reaction buffer and the kinase reaction was carried out in a total volume of 10 μl, for 60 minutes at 25° C. The 0% Phosphorylation (i.e. no ATP) and 100% Phosphorylation (i.e. synthetically phosphorylated peptide supplied) Assay Controls, included in each plate, allowed to calculate the percent phosphorylation achieved in the specific reaction well. The 0% Inhibition and 0% Phosphorylation (i.e. 100% Inhibition) Controls define the dynamic range in the screen. At the end of incubation, a secondary reaction (the Development Reaction) started by adding 5 μl of Development Reagent, containing a site-specific protease that recognizes and cleaves non-phosphorylated peptides, and was interrupted after 60 minutes with 5 μl/sample of Stop Reagent. Measurement of the Coumarin (Ex. 400 nm, Em. 460 nm) and Fluorescein (Ex. 400 nm, Em. 535 nm) emission signals were performed by a fluorescence plate reader (Envision, PerkinElmer).
Results are expressed as percentage of inhibition and the IC50 values were calculated by non-linear curve fitting using GraphPad™ Prism software.

[1] = Pharmacokinetics in CD1 mice, iv and po; format: in vivo; conditions: 3 mg/kg; for half-life: read-out: t½* (converted)
human FynB = human FynB (Homo sapiens, UniProt P06241); experiment: Inhibition of FynB-induced Tau(Y18)-phosphorylation (cell-based assay, HEK293); conditions: for IC50: HEK293 over-expressing FynB and Tau 0N4R, incubation 6 or 24 hours, ELISA
Experimental: HEK293 cells (Human Embryonic Kidney 293) were seeded at 6×10^5 in poly-D-lysine 12 w microplates and grown adherent in medium DMEM/10% FBS at 37° C. with 5% CO2. After 24 h, cells were transfected in order to over-express either constitutively active form of human FynB and Tau protein (isoform 0N4R), through an optimized Lipofectamine® 3000 Transfection protocol (Life Technologies™). A non-transfected sample (negative control) was included in every experiment.
Twenty-four hours from transfection, treatments of cells were performed by adding fresh medium containing diluent (DMSO 0.1% final concentration) or test compounds. The incubation was carried out for 6 or 24 hours at 37° C. with 5% CO2. All experimental conditions were performed in duplicate.
At the end of the incubation, the medium was removed and cellular lysates were obtained by adding M-PER lysis buffer containing a 1× Protease/Phosphatase inhibitors cocktail. Then, lysates were transferred into Eppendorf tubes, sonicated and stored at −80° C.
Protein content was measured by Bradford method. Lysates were analyzed by a customized ELISA assay for Tau phosphorylation (Tyrosine 18 residue-Fyn mediated) and Total amount determination. The net OD values were used to calculate the inhibitory effect of compounds.

Chain of EGFR (P00533 25-1210): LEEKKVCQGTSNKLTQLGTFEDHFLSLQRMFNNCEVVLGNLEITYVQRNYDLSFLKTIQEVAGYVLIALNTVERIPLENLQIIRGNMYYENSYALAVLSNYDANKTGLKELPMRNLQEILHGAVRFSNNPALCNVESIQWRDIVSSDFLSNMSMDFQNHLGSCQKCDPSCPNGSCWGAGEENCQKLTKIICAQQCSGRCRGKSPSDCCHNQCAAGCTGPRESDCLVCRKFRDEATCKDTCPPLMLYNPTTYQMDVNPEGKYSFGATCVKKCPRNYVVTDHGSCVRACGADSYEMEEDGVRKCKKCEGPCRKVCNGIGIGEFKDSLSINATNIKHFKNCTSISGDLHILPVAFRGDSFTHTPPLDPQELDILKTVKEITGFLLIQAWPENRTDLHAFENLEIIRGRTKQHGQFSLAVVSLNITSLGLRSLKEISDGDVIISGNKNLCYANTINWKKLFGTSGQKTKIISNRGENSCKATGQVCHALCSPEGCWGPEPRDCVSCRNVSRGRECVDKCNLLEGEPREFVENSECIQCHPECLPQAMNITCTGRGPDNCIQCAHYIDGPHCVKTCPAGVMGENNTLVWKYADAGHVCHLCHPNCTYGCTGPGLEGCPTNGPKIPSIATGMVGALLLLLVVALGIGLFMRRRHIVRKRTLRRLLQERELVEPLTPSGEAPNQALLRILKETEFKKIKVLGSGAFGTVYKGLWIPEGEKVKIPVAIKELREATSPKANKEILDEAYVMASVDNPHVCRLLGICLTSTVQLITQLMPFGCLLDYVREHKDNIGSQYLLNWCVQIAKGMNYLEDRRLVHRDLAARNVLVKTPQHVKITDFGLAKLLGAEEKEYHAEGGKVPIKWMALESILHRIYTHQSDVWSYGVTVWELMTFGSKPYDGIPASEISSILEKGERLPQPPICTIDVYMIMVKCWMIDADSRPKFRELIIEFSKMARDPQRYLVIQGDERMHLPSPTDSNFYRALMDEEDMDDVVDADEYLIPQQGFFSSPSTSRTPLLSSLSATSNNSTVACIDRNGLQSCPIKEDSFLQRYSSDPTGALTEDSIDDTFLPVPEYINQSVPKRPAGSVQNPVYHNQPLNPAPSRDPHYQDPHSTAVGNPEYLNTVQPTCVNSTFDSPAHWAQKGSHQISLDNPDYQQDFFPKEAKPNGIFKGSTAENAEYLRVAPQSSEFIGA
T2 sequence (P06241 whole entry): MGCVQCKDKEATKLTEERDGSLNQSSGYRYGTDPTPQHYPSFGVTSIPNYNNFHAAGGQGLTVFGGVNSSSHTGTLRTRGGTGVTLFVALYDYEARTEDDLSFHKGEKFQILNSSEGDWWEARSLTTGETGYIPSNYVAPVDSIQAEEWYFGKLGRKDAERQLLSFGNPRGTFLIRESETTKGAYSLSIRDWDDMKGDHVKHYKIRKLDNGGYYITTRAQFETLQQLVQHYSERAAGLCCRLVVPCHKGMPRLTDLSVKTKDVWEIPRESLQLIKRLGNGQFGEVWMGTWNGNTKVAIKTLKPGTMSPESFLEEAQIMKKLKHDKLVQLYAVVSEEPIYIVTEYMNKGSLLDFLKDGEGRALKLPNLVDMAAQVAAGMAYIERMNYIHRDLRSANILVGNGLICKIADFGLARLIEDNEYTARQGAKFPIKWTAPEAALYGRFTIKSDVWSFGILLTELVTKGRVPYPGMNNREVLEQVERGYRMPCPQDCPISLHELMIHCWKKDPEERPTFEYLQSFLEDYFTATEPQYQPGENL
T1 sequence (P35968 20-1356): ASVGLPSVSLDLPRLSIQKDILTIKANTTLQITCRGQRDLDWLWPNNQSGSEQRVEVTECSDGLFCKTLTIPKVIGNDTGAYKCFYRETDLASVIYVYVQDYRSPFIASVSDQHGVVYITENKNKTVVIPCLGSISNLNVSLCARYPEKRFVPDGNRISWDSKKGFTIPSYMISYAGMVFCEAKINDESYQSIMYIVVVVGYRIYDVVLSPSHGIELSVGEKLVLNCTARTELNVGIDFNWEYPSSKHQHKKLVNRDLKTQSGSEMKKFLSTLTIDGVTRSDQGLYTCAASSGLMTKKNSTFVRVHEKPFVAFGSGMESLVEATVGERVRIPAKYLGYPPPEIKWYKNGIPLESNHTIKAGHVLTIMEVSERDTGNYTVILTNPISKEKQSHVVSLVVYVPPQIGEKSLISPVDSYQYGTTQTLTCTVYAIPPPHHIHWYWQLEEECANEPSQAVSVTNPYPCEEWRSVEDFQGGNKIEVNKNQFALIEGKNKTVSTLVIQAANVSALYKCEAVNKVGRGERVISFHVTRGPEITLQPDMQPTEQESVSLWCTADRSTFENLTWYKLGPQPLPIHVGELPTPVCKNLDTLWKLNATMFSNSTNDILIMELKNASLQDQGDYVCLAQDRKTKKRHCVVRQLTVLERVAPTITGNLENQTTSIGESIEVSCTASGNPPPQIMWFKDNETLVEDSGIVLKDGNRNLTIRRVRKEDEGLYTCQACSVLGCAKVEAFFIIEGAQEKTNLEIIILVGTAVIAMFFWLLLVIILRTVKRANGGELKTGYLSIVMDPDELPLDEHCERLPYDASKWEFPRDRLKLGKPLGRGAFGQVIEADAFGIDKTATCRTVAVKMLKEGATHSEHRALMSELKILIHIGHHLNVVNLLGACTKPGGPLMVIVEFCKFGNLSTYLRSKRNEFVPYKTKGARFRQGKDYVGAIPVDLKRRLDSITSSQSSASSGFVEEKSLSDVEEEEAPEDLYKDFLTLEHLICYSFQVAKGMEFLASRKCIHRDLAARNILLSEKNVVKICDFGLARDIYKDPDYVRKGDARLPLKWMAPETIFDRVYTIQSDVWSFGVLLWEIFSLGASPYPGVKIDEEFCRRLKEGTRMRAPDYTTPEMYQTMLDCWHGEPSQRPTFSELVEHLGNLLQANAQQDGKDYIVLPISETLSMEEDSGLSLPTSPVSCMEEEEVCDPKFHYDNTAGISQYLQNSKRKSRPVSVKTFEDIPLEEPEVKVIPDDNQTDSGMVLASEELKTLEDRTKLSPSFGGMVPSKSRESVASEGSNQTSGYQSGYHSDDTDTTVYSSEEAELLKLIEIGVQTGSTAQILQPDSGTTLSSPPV
Chain of human FynB (P06241 271-524 limits assumed): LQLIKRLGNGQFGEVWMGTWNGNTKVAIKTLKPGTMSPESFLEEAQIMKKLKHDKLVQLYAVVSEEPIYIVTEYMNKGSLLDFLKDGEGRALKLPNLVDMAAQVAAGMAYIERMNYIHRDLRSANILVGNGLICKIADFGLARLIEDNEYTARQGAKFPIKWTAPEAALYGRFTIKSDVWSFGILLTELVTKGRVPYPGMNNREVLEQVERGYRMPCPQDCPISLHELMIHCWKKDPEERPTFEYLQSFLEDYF

IC50 (EGFR)	IC50 (VEGFR2 (KDR) kinase)	IC50 (FYN)	IC50 (human FynB)	Structure (SMILES)	further results
102 nM	105 nM	104 nM		CN1CCC(c2ccc(C(=O)Nc3n[nH]c4cc(Nc5c(F)cccc5Cl)ccc34)cc2)CC1 [Compound 1, N-(6-((2-chloro-6-fluorophenyl)amino)-1H-indazol-3-yl)-4-(1-methylpiperidin-4-yl)benzamide]	EGFR kinase inhibition, result in words (EGFR): more active
≥ 1000 nM	126 nM	99 nM		Cc1ccc(Nc2ccc3c(NC(=O)c4ccc(C5CCN(C)CC5)cc4)n[nH]c3c2)c(F)c1 [Compound 8, N-(6-((2-fluoro-4-methylphenyl)amino)-1H-indazol-3-yl)-4-(1-methylpiperidin-4-yl)benzamide]	
≥ 1000 nM	58 nM	82 nM		CN1CCC(c2ccc(C(=O)Nc3n[nH]c4cc(Nc5ccccc5Cl)ccc34)cc2)CC1 [Compound 14, N-(6-((2-chlorophenyl)amino)-1H-indazol-3-yl)-4-(1-methylpiperidin-4-yl)benzamide]	
225 nM	222 nM	87 nM		CN1CCC(c2ccc(C(=O)Nc3n[nH]c4cc(Nc5ccccc5F)ccc34)cc2)CC1 [Compound 17, N-(6-((2-fluorophenyl)amino)-1H-indazol-3-yl)-4-(1-methylpiperidin-4-yl)benzamide]	Tlast ([1]; iv): 24 h; AUC(0-inf) ([1]; mouse, plasma, iv): 1400 ng·h/mL; AUC(0-t) ([1]; mouse, plasma, iv): 1350 ng·h/mL; clearance ([1]; mouse, plasma, iv, read-out: CLp): 47.7 mL/min/kg; Vd ([1]; mouse, plasma, iv, read-out: Vz): 22.8 L/kg; half-life ([1]; mouse, plasma, iv): 5.5 h; AUC(0-inf) ([1]; mouse, plasma, po): 726 ng·h/mL; AUC(0-t) ([1]; mouse, plasma, po): 712 ng·h/mL; Cmax ([1]; mouse, plasma, po): 178 nM; Tmax ([1]; mouse, plasma, po): 1 h; bioavailability ([1]; mouse, plasma, po): 53%; half-life ([1]; mouse, plasma, po): 4.5 h; Tlast ([1]; po): 24 h
9 nM	105 nM	209 nM	234 nM	CN1CCC(c2ccc(C(=O)Nc3n[nH]c4nc(Nc5cccc(F)c5F)ccc34)cc2)CC1 [Compound 20, N-(6-((2,3-difluorophenyl)amino)-1H-pyrazolo[3,4-b]pyridin-3-yl)-4-(1-methylpiperidin-4-yl)benzamide]	Inhibition of FynB-induced Tau(Y18)-phosphorylation, result in words (human FynB; summary of Table 20): best inhibitors; EGFR kinase inhibition, result in words (EGFR): more active
		238 nM	1770 nM	COCCN1CCC(c2ccc(C(=O)Nc3n[nH]c4nc(Nc5ccccc5F)ccc34)cc2)CC1 [Compound 25, N-(6-((2-fluorophenyl)amino)-1H-pyrazolo[3,4-b]pyridin-3-yl)-4-(1-(2-methoxyethyl)piperidin-4-yl)benzamide]	
≥ 1000 nM	1 nM	95 nM		CN1CCC(c2ccc(C(=O)Nc3n[nH]c4nc(Nc5ccccc5)ccc34)cc2)CC1 [Compound 29, 4-(1-methylpiperidin-4-yl)-N-(6-(phenylamino)-1H-pyrazolo[3,4-b]pyridin-3-yl)benzamide]	VEGFR2 kinase inhibition, result in words (VEGFR2 (KDR) kinase): more potent
≥ 1000 nM	3 nM	356 nM		CN1CCC(c2ccc(C(=O)Nc3n[nH]c4nc(Nc5ccc(C#N)cc5)ccc34)cc2)CC1 [Compound 32, N-(6-((4-cyanophenyl)amino)-1H-pyrazolo[3,4-b]pyridin-3-yl)-4-(1-methylpiperidin-4-yl)benzamide]	VEGFR2 kinase inhibition, result in words (VEGFR2 (KDR) kinase): more potent
		103 nM	1850 nM	COc1ccc(Nc2ccc3c(NC(=O)c4ccc(C5CCN(C)CC5)cc4)n[nH]c3n2)cc1F [Compound 33, N-(6-((3-fluoro-4-methoxyphenyl)amino)-1H-pyrazolo[3,4-b]pyridin-3-yl)-4-(1-methylpiperidin-4-yl)benzamide]	
≥ 1000 nM	437 nM	388 nM		CN1CCC(Oc2ccc(C(=O)Nc3n[nH]c4cc(Oc5ccccc5F)ccc34)cc2)CC1 [Compound 37, N-(6-(2-fluorophenoxy)-1H-indazol-3-yl)-4((1-methylpiperidin-4-yl)oxy)benzamide]	
≥ 1000 nM	533 nM	181 nM		CN1CCC(c2ccc(C(=O)Nc3n[nH]c4cc(Nc5ccccc5F)ccc34)nc2)CC1 [Compound 39, N-(6((2-fluorophenyl)amino)-1H-indazol-3-yl)-5-(1-methylpiperidin-4-yl)picolinamide]	
24 nM	12 nM	513 nM		CN1CCC(Oc2ccc(C(=O)Nc3n[nH]c4nc(Nc5ccccc5F)ccc34)cc2)CC1 [Compound 47, N-(6-((2-fluorophenyl)amino)-1H-pyrazolo[3,4-b]pyridin-3-yl)-4((1-methylpiperidin-4-yl)oxy)benzamide]	EGFR kinase inhibition, result in words (EGFR): more active; VEGFR2 kinase inhibition, result in words (VEGFR2 (KDR) kinase): more potent
		168 nM	646 nM	CC(=O)N1CCN(c2ccc(C(=O)Nc3n[nH]c4nc(Nc5ccccc5F)ccc34)cc2)CC1 [Compound 52, 4-(4-acetylpiperazin-1-yl)-N-(6((2-fluorophenyl)amino)-1H-pyrazolo[3,4-b]pyridin-3-yl)benzamide]	
